Source: patent publication US10280183B2, “Therapeutic agent for treating tumors” (THE RESEARCH FOUNDATION FOR THE STATE UNIVERSITY OF NEW YORK, priority 2014, dated 2019)
Read-outs that look alike come from different tables or passages of the source.

How the values were obtained:
[1] = In vitro cytotoxicity, standard MTT assay, WI38 cells; assay type: cell-based, human; conditions: human; for IC50 at 48 h: incubation at 37° C. for 48 h
Description: (§1) Cell Culture. All cell lines were obtained from ATCC unless otherwise noted. Cells were cultured in RPMI-1640 cell culture medium (Gibco) or DMEM (Gibco), both supplemented with 5% (v/v) heat-inactivated fetal bovine serum (FBS), 5% (v/v) NuSerum, and 1% (v/v) penicillin and streptomycin (PenStrep) at 37° C. in a humidified atmosphere with 5% CO2. MX-1 and ID8 (obtained from University of Kansas Medical Center) cells were cultured as monolayers on 100 mm tissue culture dishes in supplemented RPMI-1640. L1210 and L1210FR (a gift from Dr. Gregory Russell-Jones, Access Pharmaceuticals Pty Ltd., Australia) were grown as a suspension in supplemented RPMI-1640, and WI-38 as a monolayer in supplemented DMEM. Cells were harvested, collected by centrifugation at 850 rpm for 5 min, and resuspended in fresh culture medium. Cell cultures were routinely divided by treatment with trypsin (TrypLE, Gibco) as needed every 2-4 days and collected by centrifugation at 850 rpm for 5 min, and resuspended in fresh cell culture medium, containing varying cell densities for subsequent biological experiments and analysis.
(§2) In Vitro Cytotoxicity Assays. […] Cells were harvested, collected, and resuspended in 100 μL cell culture medium at concentrations ranging from 0.5-1.5×10^4 cells per well in a 96-well plate. For adhesive cell types, cells were allowed to descend to the bottom of the wells overnight, and fresh medium was added to each well upon removal of the old medium.
(§3) For the MTT assay (Table 1 and the Assay 1 in Table 2) of paclitaxel, taxoid 3 and conjugates 1 and 15, cells were resuspended in 200 μL medium with 8,000 to 10,000 cells per well of a 96-well plate and incubated at 37° C. for 24 h before drug treatment. In DMSO stock solutions, each drug or conjugate was diluted to a series of concentrations in cell culture medium to prepare test solutions. After removing the old medium, these test solutions were added to the wells in the 96-well plate to give the final concentrations ranging from 0.5 to 5,000 nM (100 μL), and the cells were subsequently cultured at 37° C. for 48 h (Table 1) or 72 h (Table 2, Assay 1). For the leukemia cell lines, L1210 and L1210FR, cells were harvested, collected, and resuspended in the test solutions ranging from 0.5 to 5,000 nM (100 μL) at 0.5 to 0.8 ×10^4 cells per well in a 96-well plate and subsequently incubated at 37° C. for 48 h (Table 1) or 72 h (Table 2, Assay 1).
(§4) In the Assay 2 (Table 2), cells were incubated with 1 or 15 at 37° C. for 24 h, and the drug medium was removed. Then, treated cells were thoroughly washed with PBS, and GSH-OEt (6 equiv. to conjugate) in cell culture medium (200 μL) was added to the wells. These cells were incubated at 37° C. for an additional 48 h, i.e., the total incubation time was 72 h.
(§5) In the Assay 3 (Table 2), cells were incubated with 1 or 15 at 37° C. for 24 h, and GSH-OEt (6 equivalents) in cell culture medium (100 μL) was directly added to the wells. These cells were incubated at 37° C. for an additional 48 h, i.e. the total incubation time was also 72 h.
(§6) For all experiments, after removing the test medium, fresh solution of MTT in PBS (40 μL of 0.5 mg MTT/mL) was added to the wells, and the cells were incubated at 37° C. for 3 h. The MTT solution was then removed, and the resulting insoluble violet formazan crystals were dissolved in 0.1 N HCl in isopropanol with 10% Triton X-100 (40 μL) to give a violet solution. The spectrophotometric absorbance measurement of each well in the 96-well plate was run at 570 nm using a Labsystems Multiskan Ascent microplate reader. The IC50 values and their standard errors were calculated from the viability-concentration curve using Four Parameter Logistic Model of Sigmaplot. The concentration of DMSO per well was ≤1% in all cases. Each experiment was run in triplicate.

[2] = tested on: BR+ cancer cell lines (L1210FR, MX-1, ID8); experiment: MTT cytotoxicity summarised over BR+ cancer cell lines; assay type: cell-based
Description: as §2, §3, §4, §5, §6
Thus, the Assay 1 results provide the potency of conjugates in the same manner as that for the first assay summarized in Table 1, but for longer incubation time (48 h vs. 72 h). […] Accordingly, this assay may mimic the corresponding in vivo assay conditions, wherein non-internalized conjugates would be removed from the tumor, redistributed and eventually excreted. […] Thus, in principle, the results (IC50 values) in this assay should be very close to those for the control using taxoid 3 (entry 2).

[3] = tested on: MX-1 human breast carcinoma cell line (BR+); experiment: In vitro cytotoxicity, standard MTT assay, MX-1 cells; assay type: cell-based; conditions: Homo sapiens, Breast carcinoma cell
Description: as §1, §2, §3, §4, §5, §6

[4] = tested on: L1210FR murine lymphocytic leukemia cell line (BR+); experiment: In vitro cytotoxicity, standard MTT assay, L1210FR cells; assay type: cell-based; conditions: Mus musculus
Description: as §1, §2, §3, §4, §5, §6

[5] = tested on: ID8 murine ovarian carcinoma cell line (BR+); experiment: In vitro cytotoxicity, standard MTT assay, ID8 cells; assay type: cell-based; conditions: Mus musculus, Ovarian carcinoma cell, 48 h, read-out: Cytotoxicity IC50, ID8
Description: as §1, §2
as §3, with “After removing the old medium, these test solutions were added to the wells in the 96-well plate to give the final concentrations ranging from 0.5 to 5,000 nM (100 μL), and the cells were subsequently cultured at 37° C. for 48 h (Table 1) or 72 h (Table 2, Assay 1).” left out
as §6

[6] = tested on: L1210 murine lymphocytic leukemia cell line (BR−); experiment: In vitro cytotoxicity, standard MTT assay, L1210 cells; assay type: cell-based; conditions: Mus musculus, L1210, 48 h, read-out: Cytotoxicity IC50, L1210
Description: as §1, §2, §3, §6

[7] = 72 h incubation, no GSH-OEt, read-out: Cytotoxicity IC50, WI38, Assay 1
[8] = 48 h, read-out: Cytotoxicity IC50, MX-1
[9] = 72 h, read-out: Cytotoxicity IC50, MX-1, Assay 1
[10] = 48 h, read-out: Cytotoxicity IC50, L1210FR
[11] = 72 h, read-out: Cytotoxicity IC50, L1210FR, Assay 1

`CC(=O)O[C@@]12CO[C@@H]1C[C@H](O)[C@@]1(C)C(=O)[C@H](OC(=O)C3CC3)C3=C(C)[C@@H](OC(=O)[C@H](O)[C@H](C=C(C)C)NC(=O)OC(C)(C)C)C[C@@](O)([C@@H](OC(=O)c4ccccc4)[C@H]21)C3(C)C` [Taxoid 3, SB-T-1214, reference compound] gave an IC50 at 72 h [1, 7] of 4.89 ± 2.24 nM, an IC50 at 48 h [1] of 5.23 ± 0.27 nM and an IC50 ([2]; 72 h incubation, read-out: IC50 range of free taxoid against MX-1 and L1210FR) of 2.32 to 2.66 nM. The IC50 [3, 8] was 4.13 ± 2.59 nM, the IC50 [3, 9] was 2.66 ± 0.16 nM and the IC50 [4, 10] was 4.18 ± 1.8 nM. It also gave an IC50 [4, 11] of 2.32 ± 1.41 nM, an IC50 [5] of 0.17 ± 0.14 nM and an IC50 [6] of 7.05 ± 1.38 nM.
`CC(=O)O[C@@]12CO[C@@H]1C[C@H](O)[C@@]1(C)C(=O)[C@H](OC(=O)C3CC3)C3=C(C)[C@@H](OC(=O)[C@H](OC(=O)Cc4ccccc4SSC(C)C(=O)NCCNc4nc(NCCOCCOCCOCCNC(=O)CCCC[C@@H]5SC[C@@H]6NC(=O)N[C@@H]65)nc(NCc5cn(CCOCCOCCOCCF)nn5)n4)[C@H](C=C(C)C)NC(=O)OC(C)(C)C)C[C@@](O)([C@@H](OC(=O)c4ccccc4)[C@H]21)C3(C)C` (stereo partly drawn) [Conjugate 1] showed an IC50 at 72 h ([1]; 24 h incubation, PBS wash, then GSH-OEt (6 equiv.) and additional 48 h, read-out: Cytotoxicity IC50, WI38, Assay 2) of 615 ± 97 nM, an IC50 at 72 h ([1]; 24 h incubation, then GSH-OEt (6 equiv.) added without washing, additional 48 h, read-out: Cytotoxicity IC50, WI38, Assay 3) of 12.9 ± 4.3 nM and an IC50 at 72 h [1, 7] of 682 ± 110 nM. The IC50 at 48 h [1] was 709 nM, the IC50 ([2]; 24 h, PBS wash, GSH-OEt, additional 48 h, range over conjugates 1 and 15, read-out: IC50 range against BR+ cancer cells (MX-1, L1210FR), Assay 2) was 3.85 to 6.6 nM and the IC50 ([2]; 48 h, read-out: Cytotoxicity IC50, range over L1210FR, MX-1 and ID8) was 6 to 21 nM. For the same compound, the “Cancer cell selectivity (BR-specificity), BR+ cancer cells vs BR− WI38 cells” value ([2]; Assay 2) was “two-orders of magnitude difference”, the IC50 ([2]; GSH-OEt added after 24 h without PBS washing, additional 48 h, range over conjugates 1 and 15, read-out: IC50 range against MX-1 and L1210FR, third assay (Assay 3)) was 2.4 to 2.92 nM and the IC50 [3, 8] was 21.2 ± 4.6 nM. It also gave an IC50 [3, 9] of 6.27 ± 2.06 nM, an IC50 ([3]; read-out: Cytotoxicity IC50, MX-1, Assay 2) of 4.79 ± 0.12 nM and an IC50 ([3]; read-out: Cytotoxicity IC50, MX-1, Assay 3) of 2.56 ± 0.15 nM. The IC50 [4, 10] was 14.7 ± 4 nM, the IC50 [4, 11] was 10.2 ± 3 nM and the IC50 ([4]; read-out: Cytotoxicity IC50, L1210FR, Assay 2) was 6.6 ± 3.96 nM. It also gave an IC50 ([4]; read-out: Cytotoxicity IC50, L1210FR, Assay 3) of 2.79 ± 1.43 nM, an IC50 [5] of 6.62 ± 0.86 nM and an IC50 [6] of 593 nM.
